Laboratory results reported in ChEMBL document CHEMBL3124856, “Design, synthesis, and pharmacological evaluation of a novel series of pyridopyrazine-1,6-dione γ-secretase modulators” (J Med Chem, 2014).

Legend:
[1] = Apparent intrinsic clearance in human liver microsomes; assay type: ADME; settings: read-out: CLH(app)
Gamma-secretase = test: Modulation of gamma-secretase (unknown origin) expressed in CHO cells overexpressing human wild type APP assessed as reduction of amyloid beta 42 level after 24 hrs by ELISA; assay type: cell-based
MDR1 (human) = test: Efflux ratio of permeability in MDCK cells expressing human MDR1; assay type: ADME, cell-based, Canis lupus familiaris; settings: dog
[2] = Apparent intrinsic clearance in rat liver microsomes; assay type: ADME; settings: read-out: CLH(app)
[3] = Bioavailability in rat at 1 mg/kg, iv and 5 mg/kg, po; assay type: ADME, organism-based; settings: in vivo

CLint scaled [1]	IC50 (Gamma-secretase)	efflux ratio (MDR1 (human))	CLint scaled [2]	bioavailability [3]	Structure (SMILES)
36.1 mL/min/kg	3400 nM	1.2			COc1c(-n2cnc(C)c2)ccc2c(=O)n(CCc3cccc(Cl)c3)ccc12
30 mL/min/kg	15 nM	1.5	469 mL/min/kg		Cc1cn(-c2ccc3n(c2=O)CCN(CCOc2cccc4ccc(F)cc24)C3=O)cn1
12.7 mL/min/kg	311 nM	1.5	97 mL/min/kg	23%	Cc1cn(-c2ccc3n(c2=O)CCN(CCOc2ccccc2C(F)(F)F)C3=O)cn1
